Experiments:
Type in all cases: cell-based
[1] = test system: Aeribacillus pallidus TK6004 (FERM BP-08597); experiment: Germination induction, change of turbidity (630 nm) of spore suspension; details: 300 ppm; for turbidity (630 nm): 37° C., 150 rpm; for germination confirmed by turbidity decrease: up to 180 min
Procedure: (§1) It is possible to determine whether spores have germinated, after measuring an OD 630 value (turbidity at 630 nm) of the liquid culture, based on decrease in the value (Literature: Microbiology, (1950), 4, 3, 330-338). Briefly, bacterial cells after culturing are washed with distilled water and diluted with distilled water to OD 630=1.0, which is then mixed with an equal volume of a germination induction solution, and the turbidity at 630 nm is measured by a UV spectrophotometer at room temperature.
(§2) TS culture media (Difco, Trypticase Soy Broth) were inoculated respectively with 11 strains listed in Table 1 and cultured at 50° C. with respect to Geobacillus stearothermophilus NBRC13737 and Aeribacillus pallidus TK6004 (FERM BP-08597), and at 37° C. with respect to the other 9 strains, until respective colonies were established. Then with respect to each of 11 strains, a loop full of a single colony was scratched by a platinum loop and suspended in 500 μL of sterilized water. In 1000 g of water was dissolved 8.0 g of a nutrient agar culture medium (Difco, Nutrient Broth), followed by high pressure steam sterilization (121° C., 15 min) to prepare a plate medium. The nutrient agar culture medium was smeared with each 100 μL of the suspension and cultured at 37° C. for 3 days.
(§3) Then, bacterial cells were suspended using a platinum loop in 500 μL of sterilized water, and the bacterial suspension was subjected to a heat shock at 65° C. for 35 min. Each 100 μL of the heat-shocked bacterial suspension and a not-heat-shocked bacterial suspension were smeared on the TS culture media respectively and cultured at 50° C. or 37° C. for 1 day. As the results of the cultures, colony formation was confirmed also with respect to the heat-shocked bacterial suspensions, to confirm that spores were formed for all of 11 strains. Further, since the bacteria were not stained by Gram staining, it was reconfirmed that spores were formed.
(§4) After confirming the spore formation, the bacterial cells were collected by a bacteria spreader, suspended in 10 mL of sterilized distilled water, and then centrifuged (8340×g, 4° C., 15 min). The supernatant was removed and thereafter the bacterial cells were washed twice with 10 mL of sterilized water. After washing, the bacterial cells were suspended in 5 mL of sterilized water, and the suspension was filtrated by sterilized Kimwipes. The filtrate was centrifuged (8340×g, 4° C., 15 min) to remove the supernatant, and the rest was adjusted to the turbidity (at 630 nm) of 1.0 with sterilized water.
(§5) After dissolving with stirring using a stirring rod with a propeller, filtration sterilization (0.45 μm filter) was conducted to prepare each 600 ppm-solution.
(§6) Five hundred (500) μL of each solution and 500 μL of each bacterial spore suspension were mixed. […] Defining the time point of mixing as the reaction initiation (0 min), and continuing shaking (150 rpm) at 37° C., the turbidity (630 nm) was measured at 10, 20, 30, 40, 50, 60, 90, 120, and 180 min after the reaction initiation.
(§7) Since the turbidity at 630 nm decreases by germination of spores, it has been known that the turbidity at 630 nm can be used to determine the germination rate.

[2] = test system: Bacillus amyloliquefaciens (NBRC 3032); experiment: as above; details: 300 ppm; for turbidity (630 nm): 37° C., 150 rpm; for germination confirmed by turbidity decrease: up to 180 min
Procedure: as §1, §2, §3, §4, §5, §6, §7

[3] = test system: Bacillus coagulans (NBRC 3887); experiment: as above; details: 300 ppm; for turbidity (630 nm): 37° C., 150 rpm; for germination confirmed by turbidity decrease: up to 180 min
Procedure: as §1, §2, §3, §4, §5, §6, §7

[4] = test system: Bacillus licheniformis (NBRC 12195); experiment: as above; details: 300 ppm; for turbidity (630 nm): 37° C., 150 rpm; for germination confirmed by turbidity decrease: up to 180 min
Procedure: as §1, §2, §3, §4, §5, §6, §7

[5] = test system: Bacillus subtilis C-3102 (FERM BP-1096); experiment: as above; details: 300 ppm; for turbidity (630 nm): 37° C., 150 rpm; for germination confirmed by turbidity decrease: up to 180 min
Procedure: as §1, §2, §3, §4, §5, §6, §7

[6] = test system: Bacillus subtilis C-3102 (FERM BP-1096); experiment: Germination induction by ferulic acid, vanillic acid or p-coumaric acid at 300 ppm, turbidity change (Example 3); details: for turbidity (630 nm): 37° C., 150 rpm
Procedure: In each 500 mL of distilled water heated to 70° C. was added 0.3 g of ferulic acid, vanillic acid, or p-coumaric acid. After dissolving with stirring using a stirring rod with a propeller, filtration sterilization (0.45 μm filter) was conducted to prepare each 600 ppm-solution.
Next, 500 μL aliquots of bacterial suspension of Bacillus subtilis C-3102 (FERM BP-1096) prepared by a similar method as in Example 1 were mixed with 500 μL of each of the ferulic acid, vanillic acid, and p-coumaric acid solutions, and the mixtures were adjusted to 300 ppm of ferulic acid, vanillic acid, or p-coumaric acid concentration. Defining the time point of mixing as the reaction initiation (0 min), and continuing shaking (150 rpm) at 37° C., the turbidity (630 nm) was measured at 10, 20, 30, 40, 50, 60, 90, 120, and 180 min after the reaction initiation.

[7] = 0 min after reaction initiation
[8] = 10 min after reaction initiation
[9] = 20 min after reaction initiation
[10] = 30 min after reaction initiation
[11] = 40 min after reaction initiation
[12] = 50 min after reaction initiation
[13] = 60 min after reaction initiation
[14] = 90 min after reaction initiation
[15] = 120 min after reaction initiation
[16] = 180 min after reaction initiation

SMILES: COc1cc(/C=C/C(=O)O)ccc1O [Ferulic acid, ferulic acid]
- turbidity (630 nm) [1, 7]: 0.484
- turbidity (630 nm) [1, 8]: 0.450
- turbidity (630 nm) [1, 9]: 0.393
- turbidity (630 nm) [1, 10]: 0.276
- turbidity (630 nm) [1, 11]: 0.193
- turbidity (630 nm) [1, 12]: 0.124
- turbidity (630 nm) [1, 13]: 0.080
- turbidity (630 nm) [1, 14]: 0.040
- turbidity (630 nm) [1, 15]: 0.016
- turbidity (630 nm) [1, 16]: 0.016
- germination confirmed by turbidity decrease [1]: the turbidity decreased
- turbidity (630 nm) [2, 7]: 0.526
- turbidity (630 nm) [2, 8]: 0.505
- turbidity (630 nm) [2, 9]: 0.480
- turbidity (630 nm) [2, 10]: 0.431
- turbidity (630 nm) [2, 11]: 0.397
- turbidity (630 nm) [2, 12]: 0.353
- turbidity (630 nm) [2, 13]: 0.316
- turbidity (630 nm) [2, 14]: 0.269
- turbidity (630 nm) [2, 15]: 0.245
- turbidity (630 nm) [2, 16]: 0.216
- germination confirmed by turbidity decrease [2]: the turbidity decreased
- turbidity (630 nm) [3, 7]: 0.566
- turbidity (630 nm) [3, 8]: 0.531
- turbidity (630 nm) [3, 9]: 0.500
- turbidity (630 nm) [3, 10]: 0.454
- turbidity (630 nm) [3, 11]: 0.423
- turbidity (630 nm) [3, 12]: 0.372
- turbidity (630 nm) [3, 13]: 0.340
- turbidity (630 nm) [3, 14]: 0.300
- turbidity (630 nm) [3, 15]: 0.247
- turbidity (630 nm) [3, 16]: 0.209
- germination confirmed by turbidity decrease [3]: the turbidity decreased
- turbidity (630 nm) [4, 7]: 0.541
- turbidity (630 nm) [4, 8]: 0.521
- turbidity (630 nm) [4, 9]: 0.502
- turbidity (630 nm) [4, 10]: 0.480
- turbidity (630 nm) [4, 11]: 0.449
- turbidity (630 nm) [4, 12]: 0.430
- turbidity (630 nm) [4, 13]: 0.392
- turbidity (630 nm) [4, 14]: 0.368
- turbidity (630 nm) [4, 15]: 0.324
- turbidity (630 nm) [4, 16]: 0.290
- germination confirmed by turbidity decrease [4]: the turbidity decreased
- turbidity (630 nm) [5, 7]: 0.602
- turbidity (630 nm) [5, 8]: 0.578
- turbidity (630 nm) [5, 9]: 0.558
- turbidity (630 nm) [5, 10]: 0.548
- turbidity (630 nm) [5, 11]: 0.535
- turbidity (630 nm) [5, 12]: 0.506
- turbidity (630 nm) [5, 13]: 0.493
- turbidity (630 nm) [5, 14]: 0.471
- turbidity (630 nm) [5, 15]: 0.430
- turbidity (630 nm) [5, 16]: 0.335
- germination confirmed by turbidity decrease [5]: the turbidity decreased
- germination confirmed by turbidity decrease [6]: decreased, thereby to confirm germination
- turbidity (630 nm) [6, 7]: 0.545
- turbidity (630 nm) [6, 8]: 0.527
- turbidity (630 nm) [6, 9]: 0.513
- turbidity (630 nm) [6, 10]: 0.484
- turbidity (630 nm) [6, 11]: 0.466
- turbidity (630 nm) [6, 12]: 0.449
- turbidity (630 nm) [6, 13]: 0.413
- turbidity (630 nm) [6, 14]: 0.368
- turbidity (630 nm) [6, 15]: 0.313
- turbidity (630 nm) [6, 16]: 0.233

SMILES: COc1cc(C(=O)O)ccc1O [Vanillic acid, vanillic acid]
- turbidity (630 nm) [1, 7]: 0.482
- turbidity (630 nm) [1, 8]: 0.444
- turbidity (630 nm) [1, 9]: 0.348
- turbidity (630 nm) [1, 10]: 0.243
- turbidity (630 nm) [1, 11]: 0.158
- turbidity (630 nm) [1, 12]: 0.103
- turbidity (630 nm) [1, 13]: 0.067
- turbidity (630 nm) [1, 14]: 0.026
- turbidity (630 nm) [1, 15]: 0.010
- turbidity (630 nm) [1, 16]: 0.000
- germination confirmed by turbidity decrease [1]: the turbidity decreased
- turbidity (630 nm) [2, 7]: 0.519
- turbidity (630 nm) [2, 8]: 0.496
- turbidity (630 nm) [2, 9]: 0.485
- turbidity (630 nm) [2, 10]: 0.435
- turbidity (630 nm) [2, 11]: 0.385
- turbidity (630 nm) [2, 12]: 0.359
- turbidity (630 nm) [2, 13]: 0.316
- turbidity (630 nm) [2, 14]: 0.278
- turbidity (630 nm) [2, 15]: 0.237
- turbidity (630 nm) [2, 16]: 0.210
- germination confirmed by turbidity decrease [2]: the turbidity decreased
- turbidity (630 nm) [3, 7]: 0.559
- turbidity (630 nm) [3, 8]: 0.550
- turbidity (630 nm) [3, 9]: 0.473
- turbidity (630 nm) [3, 10]: 0.411
- turbidity (630 nm) [3, 11]: 0.364
- turbidity (630 nm) [3, 12]: 0.321
- turbidity (630 nm) [3, 13]: 0.295
- turbidity (630 nm) [3, 14]: 0.230
- turbidity (630 nm) [3, 15]: 0.182
- turbidity (630 nm) [3, 16]: 0.130
- germination confirmed by turbidity decrease [3]: the turbidity decreased
- turbidity (630 nm) [4, 7]: 0.536
- turbidity (630 nm) [4, 8]: 0.513
- turbidity (630 nm) [4, 9]: 0.483
- turbidity (630 nm) [4, 10]: 0.438
- turbidity (630 nm) [4, 11]: 0.393
- turbidity (630 nm) [4, 12]: 0.324
- turbidity (630 nm) [4, 13]: 0.278
- turbidity (630 nm) [4, 14]: 0.196
- turbidity (630 nm) [4, 15]: 0.151
- turbidity (630 nm) [4, 16]: 0.092
- germination confirmed by turbidity decrease [4]: the turbidity decreased
- turbidity (630 nm) [5, 7]: 0.604
- turbidity (630 nm) [5, 8]: 0.575
- turbidity (630 nm) [5, 9]: 0.551
- turbidity (630 nm) [5, 10]: 0.543
- turbidity (630 nm) [5, 11]: 0.505
- turbidity (630 nm) [5, 12]: 0.483
- turbidity (630 nm) [5, 13]: 0.461
- turbidity (630 nm) [5, 14]: 0.432
- turbidity (630 nm) [5, 15]: 0.390
- turbidity (630 nm) [5, 16]: 0.266
- germination confirmed by turbidity decrease [5]: the turbidity decreased
- germination confirmed by turbidity decrease [6]: decreased, thereby to confirm germination
- turbidity (630 nm) [6, 7]: 0.542
- turbidity (630 nm) [6, 8]: 0.525
- turbidity (630 nm) [6, 9]: 0.506
- turbidity (630 nm) [6, 10]: 0.485
- turbidity (630 nm) [6, 11]: 0.467
- turbidity (630 nm) [6, 12]: 0.450
- turbidity (630 nm) [6, 13]: 0.409
- turbidity (630 nm) [6, 14]: 0.379
- turbidity (630 nm) [6, 15]: 0.356
- turbidity (630 nm) [6, 16]: 0.282
